Like-named read-outs stand apart in the source and are kept apart here.
Legend:
TNFα = experiment: TNFa secretion assay in human PBMCs (LPS-stimulated, ELISA); type: cell-based; conditions: PBMC, LPS 100 ng/mL 6 hr, read-out: TNF inhibitory activity IC50
Procedure: Fetal bovine serum (FBS) was obtained from ThermoFisher (Cat #16000044). • Other reagents: 96well TC plates were obtained from ThermoFisher (Cat #07-2000-90). LPS was obtained from Sigma (Cat #L3024).
TNF-alpha was assessed using a standard ELISA protocol. Cryopreserved PBMCs were thawed in a water bath and transferred to 50 mL polypropylene tubes. The cells were washed two times with 25 mL of RPMI medium supplemented with 5% of heat-inactivated FBS and re-suspended at a density of 4.5^10^6 cells/mL. The cells were plated into 96 well TC late (100 uL/well). Serially diluted compound was added to the cells in duplicate wells for each concentration. Control wells received DMSO only (0.3% final). The cells were pre-incubated with compound for 1 hr. After pre-incubation, the cells were stimulated by LPS (100 ng/mL) for 6 hr. Control samples with and without LPS in the absence of compound were assembled in each test plate. TNFa was detected in media supernatants by using a sandwich anti-TNFα ELISA kit (BD Biosciences) according to protocol provided by the manufacturer. ELISA readout (optical density at 450 nm) is commensurable with the amount of TNFα produced by the cells. Assay window was determined in each experiment by comparing average OD450 values in stimulated and un-stimulated samples in the absence of compound. ELISA calibration was performed in each detection plate using serially diluted recombinant human TNFα, to ensure that OD450 values for all test samples were within linear range of detection.%-Inhibition by compound was calculated using following equation:
[formula] • where OD450100% is optical density in control samples stimulated with LPS without compound, OD4500% is optical density in unstimulated control samples, and OD450compound is optical density in a sample stimulated with LPS in the presence of compound.
(§1) The calculated %-Inh values were plotted against compound concentration. To determine IC50 values, dose-response curves were fitted by a 4-parameter sigmoid inhibition model using XLFit® software (IDBS).

[1] = target: T1, Recombinant human ALOX15 (Arachidonate 15-Lipoxygenase) (Homo sapiens, UniProt P16050); experiment: Biochemical LOX-15 assay
T1 construct: full length encompassing amino acids 2-662(end); FLAG (N); purchased BPS Biosciences 50220
T1 sequence (P16050 2-662): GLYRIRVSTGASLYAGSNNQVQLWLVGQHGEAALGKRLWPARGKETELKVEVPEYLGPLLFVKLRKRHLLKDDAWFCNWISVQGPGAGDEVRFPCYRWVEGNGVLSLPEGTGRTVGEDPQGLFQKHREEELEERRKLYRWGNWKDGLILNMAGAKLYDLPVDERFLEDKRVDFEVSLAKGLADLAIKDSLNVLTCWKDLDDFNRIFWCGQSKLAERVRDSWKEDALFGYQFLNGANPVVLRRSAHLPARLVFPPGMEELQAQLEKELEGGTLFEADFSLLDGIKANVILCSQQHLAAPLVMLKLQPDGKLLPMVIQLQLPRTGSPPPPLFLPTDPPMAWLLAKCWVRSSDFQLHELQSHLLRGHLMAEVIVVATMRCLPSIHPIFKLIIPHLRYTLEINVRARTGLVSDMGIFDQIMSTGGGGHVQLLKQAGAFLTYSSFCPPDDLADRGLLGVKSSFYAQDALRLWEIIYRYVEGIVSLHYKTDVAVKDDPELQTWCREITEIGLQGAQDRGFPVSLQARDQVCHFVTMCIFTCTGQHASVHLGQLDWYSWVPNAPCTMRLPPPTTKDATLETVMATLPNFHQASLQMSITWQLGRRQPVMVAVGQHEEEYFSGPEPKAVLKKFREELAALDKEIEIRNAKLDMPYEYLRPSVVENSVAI
Source text: • Recombinant human ALOX15 (Arachidonate 15-Lipoxygenase), full length encompassing amino acids 2-662(end). In this construct the N-terminal end of ALOX15 is fused with a FLAG tag was obtained from BPS Biosciences (Cat #50220). • Dihydrorhodamine 123, DHR, was obtained from Sigma (Cat #1054) • Arachidonic acid, AA, was obtained from Sigma (Cat #A3611) • Other reagents: black 384 well assay plates were obtained from Corning (Cat #3820). • Equipment: Synergy Neo2 Multi-mode plate reader (Biotek), Labcyte 550 acoustic dispenser (Labcyte), Biomek FX robotic dispenser (Beckman Coulter), Sorvall Legend RT centrifuge (Kendro).
The LOX-15 assay was performed in assay buffer comprising: 50 mM Tris (pH 7.5),), 5 uM DHR, 50 uM AA, and 50 nM recombinant enzyme. Serially diluted compounds were prepared in DMSO in Echo qualified 384 well plates. An assay buffer was then prepared without supplemented 10 uM DHRA. 10 uL of the supplemented buffer was dispensed into control (no enzyme) wells in the black 384well assay plate. Next, a 2× enzyme solution was prepared, comprising 100 nM LOX-15 enzyme in the supplemented assay buffer. 10 uL of the 2× enzyme solution was then dispensed into test wells in the black 384well assay plate. Serially diluted compounds were added to the assay plate by acoustic dispensing (Labcyte 550). Control wells received DMSO only.
Next, the 2× substrate was prepared to comprise 100 uM arachidonic acid in the assay buffer. 10 uL of the 2× substrate was then added to all wells in the assay plate. The plate was incubated for 3 hours. The plate was read on Synergy Neo2 in fluorescence mode: excitation 485 nm, emission 530 nm. % inhibition and the resulting IC50 was calculated for the compound using the following equation:
[formula] • where RFU100% is fluorescence in control samples without compound, RFU0% is fluorescence in control samples without LOX-15, and RFUcompound fluorescence in a sample with compound.
as §1

[2] = 50 nM recombinant enzyme, 50 uM AA, read-out: 15-Lox inhibitory activity IC50

Row | Structure (SMILES) | IC50 (TNFα) [µM] | IC50 [1] [µM] | IC50 [1, 2] [µM]
1 | CC(C)=CCCC1(C)C=CC2=C(O1)C(=O)c1ccccc1C2=O (stereo not shown) [Formula XXVII] | > 10 | > 10 | 
2 | CCCCCC1=C(NCC)C(=O)C2=C(OC(C)(CCC=C(C)C)C=C2)C1=O (stereo not shown) [Formula XXVIII] | > 10 |  | > 10
3 | CCCCCc1cc(OC(C)=O)c2c(c1OC(C)=O)OC(C)(CCC=C(C)C)C=C2 (stereo not shown) [Formula XXIII] | 9.95 |  | > 10
4 | CCCCCc1cc(OC)c2c(c1OC)OC(C)(CCC=C(C)C)C=C2 (stereo not shown) [Formula XXIV] | 10.6 |  | > 10
5 | CCCCCC1=CC(=O)C2=C(OC(C)(CCC=C(C)C)C=C2)C1=O (stereo not shown) [Formula II] | 0.93 |  | 5.4
6 | CCCCCC1=CC(=O)C2=C(O[C@](C)(CCC=C(C)C)C=C2)C1=O [Formula XXVI] | 0.62 |  | 1.93
7 | CCCCCc1cc(O)c2c(c1O)OC(C)(CCC=C(C)C)C=C2 (stereo not shown) [Formula XXII] | 9.2 |  | 1.22
8 | CCCCCC1=C(NCCC)C(=O)C2=C(OC(C)(CCC=C(C)C)C=C2)C1=O (stereo not shown) [Formula XXV] | 9 |  | 5.7

Source: patent US20250057859A1, “CANNABICHROMENEQUINONE AND ANALOGUES THEREOF, AND METHOD OF USING COMPOSITIONS THEREOF AS ANTI-INFLAMMATORY AGENTS” (Juva Life, Inc., priority 2021, published 2025)
